We go through three compounds from article PMC4852132 (Biochemistry, 2016).

Where two headings read alike, the source gives them in different places.

As usually defined, the Kd is the constant that tells how readily two partners part at equilibrium. In general, Ki refers to a measure of affinity in units of concentration, obtained from inhibition or displacement. One may read the pKa as the negative logarithm of the acid dissociation constant. Read a high pKa as a group that holds its proton tightly.

The target in series [1] is DXPS (Escherichia coli, UniProt P77488). In words: CD titration of apo-DXPS with ThTTDP. Type of series: binding. Particulars: for Kd: read-out: Kd,ThTTDP, CD titration, CD331.
For series [2], the target named is T1, E1p-h (Homo sapiens, UniProt P08559+P11177).
T1 sequence (P08559 30-390): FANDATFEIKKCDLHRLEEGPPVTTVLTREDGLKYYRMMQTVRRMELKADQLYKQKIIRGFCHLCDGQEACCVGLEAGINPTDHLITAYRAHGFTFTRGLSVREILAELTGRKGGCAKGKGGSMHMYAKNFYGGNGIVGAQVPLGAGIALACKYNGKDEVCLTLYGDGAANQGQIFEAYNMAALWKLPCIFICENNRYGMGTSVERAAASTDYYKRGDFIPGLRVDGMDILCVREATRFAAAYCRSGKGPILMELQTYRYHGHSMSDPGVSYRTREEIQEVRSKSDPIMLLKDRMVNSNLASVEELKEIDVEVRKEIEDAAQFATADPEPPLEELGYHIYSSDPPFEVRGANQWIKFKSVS
T1 sequence (P11177 31-359): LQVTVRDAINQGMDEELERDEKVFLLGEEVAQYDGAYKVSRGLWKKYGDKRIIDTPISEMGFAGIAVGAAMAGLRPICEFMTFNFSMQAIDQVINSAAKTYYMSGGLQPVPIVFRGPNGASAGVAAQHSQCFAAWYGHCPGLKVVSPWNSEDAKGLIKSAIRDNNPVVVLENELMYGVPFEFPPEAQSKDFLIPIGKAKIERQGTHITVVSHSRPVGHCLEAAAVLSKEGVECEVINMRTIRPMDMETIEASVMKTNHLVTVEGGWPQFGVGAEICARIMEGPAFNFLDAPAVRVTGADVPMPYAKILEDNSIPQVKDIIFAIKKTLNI
Particulars: read-out: Ki,AcPhi; cited from earlier work.

Series [3] addresses T2, E1p-ec (Escherichia coli, UniProt P0AFG8). In words: CD titration of E1p-ec by acetylphosphinate. Type of series: binding. Particulars: for Kd: read-out: Kd,AcPhi.
The target of series [4] is T2, E1p-ec. Particulars: read-out: Ki,AcPhi, reversible tight-binding inhibitor; cited from earlier work.
In series [5] the target is T1, E1p-h. Nature of the series: CD titration of E1p-h by acetylphosphinate. To be noted: read-out: Kd,AcPhi. Type of series: binding.
Series [6] deals with T2, E1p-ec. Particulars: read-out: Kd,AcPhi; E1p-ec with ThDP; cited from earlier work.
A short description of series [7]: UV spectroscopic determination of the pKa for N1-protonated bacimethrin. The format is physicochemical. Particulars: aqueous triple buffer.
[8] abbreviates: in the presence of 10 µM MeOThDP.

DXPS, sequence (P77488 whole entry): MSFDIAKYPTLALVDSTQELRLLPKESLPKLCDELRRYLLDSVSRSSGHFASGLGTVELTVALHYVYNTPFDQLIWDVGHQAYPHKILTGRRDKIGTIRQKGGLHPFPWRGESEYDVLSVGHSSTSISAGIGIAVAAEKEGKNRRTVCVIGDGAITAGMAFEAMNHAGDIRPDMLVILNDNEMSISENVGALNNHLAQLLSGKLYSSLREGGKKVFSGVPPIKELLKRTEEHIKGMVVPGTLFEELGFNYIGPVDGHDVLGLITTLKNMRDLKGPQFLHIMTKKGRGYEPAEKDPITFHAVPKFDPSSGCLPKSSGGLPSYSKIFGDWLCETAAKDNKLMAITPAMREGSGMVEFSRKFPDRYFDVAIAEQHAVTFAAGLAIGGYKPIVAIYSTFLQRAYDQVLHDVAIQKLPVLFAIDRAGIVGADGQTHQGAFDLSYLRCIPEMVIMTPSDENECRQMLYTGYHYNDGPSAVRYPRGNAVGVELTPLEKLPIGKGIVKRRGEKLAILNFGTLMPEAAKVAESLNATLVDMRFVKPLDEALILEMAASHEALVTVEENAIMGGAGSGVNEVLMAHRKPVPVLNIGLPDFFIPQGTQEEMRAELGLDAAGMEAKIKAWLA
T2 sequence (P0AFG8 2-887 limits assumed): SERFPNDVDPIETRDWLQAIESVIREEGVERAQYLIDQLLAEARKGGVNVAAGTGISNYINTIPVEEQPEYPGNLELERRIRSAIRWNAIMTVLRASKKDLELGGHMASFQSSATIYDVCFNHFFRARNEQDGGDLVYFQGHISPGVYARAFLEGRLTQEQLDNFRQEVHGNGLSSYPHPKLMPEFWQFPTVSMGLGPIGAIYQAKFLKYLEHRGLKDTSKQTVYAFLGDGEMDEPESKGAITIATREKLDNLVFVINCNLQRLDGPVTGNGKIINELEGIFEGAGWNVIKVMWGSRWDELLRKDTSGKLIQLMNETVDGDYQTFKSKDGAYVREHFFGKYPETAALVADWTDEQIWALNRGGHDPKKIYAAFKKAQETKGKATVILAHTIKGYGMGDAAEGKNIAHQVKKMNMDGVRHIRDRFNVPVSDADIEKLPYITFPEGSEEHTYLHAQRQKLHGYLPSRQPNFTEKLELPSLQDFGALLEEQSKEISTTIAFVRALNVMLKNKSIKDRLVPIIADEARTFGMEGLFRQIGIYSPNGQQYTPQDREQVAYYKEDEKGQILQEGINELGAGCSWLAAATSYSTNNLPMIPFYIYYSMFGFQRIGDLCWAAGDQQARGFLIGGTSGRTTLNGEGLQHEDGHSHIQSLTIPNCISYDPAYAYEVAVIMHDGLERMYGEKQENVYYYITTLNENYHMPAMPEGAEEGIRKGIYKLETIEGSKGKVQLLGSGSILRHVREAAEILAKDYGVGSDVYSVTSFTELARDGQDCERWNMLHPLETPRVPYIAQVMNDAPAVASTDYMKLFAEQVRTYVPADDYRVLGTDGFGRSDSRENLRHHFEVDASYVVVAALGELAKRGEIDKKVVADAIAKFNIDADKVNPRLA

For `Cc1ncc(Cn2c(C)c(CCOP(=O)(O)OP(=O)(O)O)sc2=S)c(N)n1` [ThTTDP, Thiamin 2-thiothiazolone diphosphate], the figures for the “[ThTTDP]/[DXPS active centers] molar ratio at saturation” value in series [1] (setting [8]) and in series [1] (no MeOThDP) were 2.6 and 1.26, respectively. Besides, the Kd in series [1] (setting [8]) worked out at 600 ± 140 nM; in series [1] (no MeOThDP) it was 390 ± 100 nM.
Take `CC(=O)[PH](=O)[O-].[Na+]` [AcPhi, acetylphosphinic acid sodium salt]: the inhibitory constant (Ki) in series [2] was 14 nM; in series [4], 760 nM. In series [3] (E1p-ec complexed with ThDP), the “[AcPhi]/[E1p-ec] molar ratio at maximal CD intensity” value is recorded as 1/1. For the same compound, the equilibrium dissociation constant (Kd) is 1880 nM in series [3] (E1p-ec complexed with 0.20 mM MeOThDP, CD303); 36 nM in series [3] (E1p-ec complexed with 0.20 mM ThDP, CD319); 1360 nM in series [5] (E1p-h complexed with MeOThDP); 43 nM in series [5] (E1p-h complexed with ThDP, unpublished data); 62 nM in series [6].
Regarding `COc1ncc(CO)c(N)n1` [bacimethrin, 4-amino-5-hydroxymethyl-2-methoxypyrimidine], in series [7], the pKa was 5.32 ± 0.03.
